The text below walks through data of patent publication US10407414B2, “Mannose derivatives for treating bacterial infections” (priority 2015, dated 2019).

Each structure is given as a SMILES string.

The subject of experiment [1] is AIEC LF82 strain on T84 intestinal epithelial cells. In words: Adhesion assay of AIEC LF82 strain on T84 intestinal epithelial cells (post-incubation test). The format is cell-based, E. coli. Here is the method:
Residual adhesion is the ratio of level of colonization/decolonization of AIEC measured on cells, and is expressed in percentage. 100% corresponds to the control experiment (NT).
Adhesion Assays of AIEC LF82 Strain on T84 Intestinal Epithelial Cells
Compound 56 was evaluated for its ability to inhibit the adhesion of bacteria AIEC LF82 strain on T84 intestinal cells, in order to assess the therapeutic potential of the tested compounds in Crohn's Disease (CD) in particular. The following post-incubation test was used (also described in Brument et al. J. Med. Chem. 2013, 56, 5395-5406), wherein the tested compound is added after the bacteria are brought into contact with the cells. This test thus mimics a use of the compounds in curative treatment of pathologies associated with AIECs, in particular Crohn's disease.
E. coli strain LF82 isolated from an ileal biopsy of a CD patient was used as the AIEC reference strain. Bacteria were grown overnight in Luria-Bertani (LB) broth, and a bacterial suspension was prepared at a concentration of 6×10^6 bacteria/mL in DMEM/F12/SVF dec 10% medium for adhesion assays. The human intestinal cell line T84, purchased from American Type Culture Collection (ATCC, CCL-248), was maintained in an atmosphere containing 5% CO2 in the culture medium recommended by ATCC. […]

Experiment [2] concerns bacterial strain LF82 binding to the glycoprotein BSA-(Mannose)3 (FimH antagonists). Kind of experiment: Bacterial Binding Assay (BBA). The format is cell-based, Escherichia coli. The conditions noted are these: read-out: Bacterial Binding Assay IC50 ± SEM. The procedure, abridged:
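Luciferase-expressing E. coli LF82, grown overnight at 37 °C without shaking, added as 2×10^8 bacteria/mL suspension with compound in BSA/D-PBS binding buffer. Wells were coated with 0.5–2 μg/mL BSA-(Man)3 and BSA-blocked, with 40–75 min binding at room temperature. After washing, adherent bacteria were read by luciferase luminescence and IC50 derived.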

One may read the IC50 as the concentration at which inhibition is half-maximal. `Cc1cc(=O)[nH]cc1-c1cc(C#C[C@H]2O[C@H](CO)[C@@H](O)[C@H](O)[C@@H]2O)c2[nH]ncc2c1` [Compound 56, 4-methyl-5-[7-[2-[(2R,3S,4R,5S,6R)-3,4,5-trihydroxy-6-(hydroxymethyl)tetrahydropyran-2-yl]ethynyl]-1H-indazol-5-yl]-1H-pyridin-2-one]: the “decolonization of adherent bacteria” value in experiment [1] (at 10 nM, compound added after infection of T84 cells with LF82, 3 h at 37° C.) is listed as “about 50%”. The “activity for the decolonization of the LF82 AIEC from T84 cells” value in experiment [1] (from a concentration of 100 nM, FIG. 1) was “potent activity”. In experiment [2], the IC50 amounted to 200 ± 20 pM.
For `Cc1cc(-c2cc(C#C[C@H]3O[C@H](CO)[C@@H](O)[C@H](O)[C@@H]3O)c3[nH]ncc3c2)ccn1` [Compound 84, (2R,3S,4R,5S,6R)-2-(hydroxymethyl)-6-[2-[5-(2-methyl-4-pyridyl)-1H-indazol-7-yl]ethynyl]tetrahydropyran-3,4,5-triol], in experiment [2], the IC50 was 500 ± 200 pM.
Regarding `O=c1cc(-c2cc(C#C[C@H]3O[C@H](CO)[C@@H](O)[C@H](O)[C@@H]3O)c3[nH]ncc3c2)cc[nH]1` [Compound 85, 4-[7-[2-[(2R,3S,4R,5S,6R)-3,4,5-trihydroxy-6-(hydroxymethyl)tetrahydropyran-2-yl]ethynyl]-1H-indazol-5-yl]-1H-pyridin-2-one], the IC50 in experiment [2] was 400 ± 200 pM.
Same read-out and setting: the result for `OC[C@H]1O[C@H](C#Cc2cc(-c3cc(F)ccc3F)cc3cn[nH]c23)[C@@H](O)[C@@H](O)[C@@H]1O` [Compound 86, (2R,3S,4R,5S,6R)-2-[2-[5-(2,5-difluorophenyl)-1H-indazol-7-yl]ethynyl]-6-(hydroxymethyl)tetrahydropyran-3,4,5-triol] reads 1000 ± 200 pM.
Take `CCc1ccccc1-c1cc(C#C[C@H]2O[C@H](CO)[C@@H](O)[C@H](O)[C@@H]2O)c2[nH]ncc2c1` [Compound 87]: the half-maximal inhibitory concentration (IC50) in experiment [2] is 1000 pM.
The same measure, in the same setting: the result for `Cc1ccc(-c2cc(C#C[C@H]3O[C@H](CO)[C@@H](O)[C@H](O)[C@@H]3O)c3[nH]ncc3c2)c(C)c1` [Compound 88, (2R,3S,4R,5S,6R)-2-[2-[5-(2,4-dimethylphenyl)-1H-indazol-7-yl]ethynyl]-6-(hydroxymethyl)tetrahydropyran-3,4,5-triol] reads 2000 pM; that for `Cc1ccc(C#N)cc1-c1cc(C#C[C@H]2O[C@H](CO)[C@@H](O)[C@H](O)[C@@H]2O)c2[nH]ncc2c1` [Compound 89, 4-methyl-3-[7-[2-[(2R,3S,4R,5S,6R)-3,4,5-trihydroxy-6-(hydroxymethyl)tetrahydropyran-2-yl]ethynyl]-1H-indazol-5-yl]benzonitrile], 500 ± 40 pM; that for `CNC(=O)c1ccc(F)c(-c2cc(C#C[C@H]3O[C@H](CO)[C@@H](O)[C@H](O)[C@@H]3O)c3[nH]ncc3c2)c1` [Compound 90, 4-fluoro-N-methyl-3-[7-[2-[(2R,3S,4R,5S,6R)-3,4,5-trihydroxy-6-(hydroxymethyl)tetrahydropyran-2-yl]ethynyl]-1H-indazol-5-yl]benzamide], 3000 pM.
Still for that read-out and setting: for `Cc1cc(O)ccc1-c1cc(C#C[C@H]2O[C@H](CO)[C@@H](O)[C@H](O)[C@@H]2O)c2[nH]ncc2c1` [Compound 91, (2R,3S,4R,5S,6R)-2-(hydroxymethyl)-6-[2-[5-(4-hydroxy-2-methyl-phenyl)-1H-indazol-7-yl]ethynyl]tetrahydropyran-3,4,5-triol] the value was 300 ± 30 pM; for `CNC(=O)c1cc(-c2cc(C#C[C@H]3O[C@H](CO)[C@@H](O)[C@H](O)[C@@H]3O)c3[nH]ncc3c2)ccn1` [Compound 92, N-methyl-4-[7-[2-[(2R,3S,4R,5S,6R)-3,4,5-trihydroxy-6-(hydroxymethyl)tetrahydropyran-2-yl]ethynyl]-1H-indazol-5-yl]pyridine-2-carboxamide], 1000 pM.
On the same count and under the same terms, the result for `CCN(CC)S(=O)(=O)c1ccc(C)c(-c2cc(C#C[C@H]3O[C@H](CO)[C@@H](O)[C@H](O)[C@@H]3O)c3[nH]ncc3c2)c1` [Compound 93, N,N-diethyl-4-methyl-3-[7-[2-[(2R,3S,4R,5S,6R)-3,4,5-trihydroxy-6-(hydroxymethyl)tetrahydropyran-2-yl]ethynyl]-1H-indazol-5-yl]benzenesulfonamide] reads 1000 pM; that for `Cc1cc(F)ccc1-c1cc(C#C[C@H]2O[C@H](CO)[C@@H](O)[C@H](O)[C@@H]2O)c2[nH]ncc2c1` [Compound 94, (2R,3S,4R,5S,6R)-2-[2-[5-(4-fluoro-2-methyl-phenyl)-1H-indazol-7-yl]ethynyl]-6-(hydroxymethyl)tetrahydropyran-3,4,5-triol], 600 ± 300 pM.
